Assay: method code SF-AS, from Fulcrand, P.; Berge, G.; Noel, A. (1978). Hydrazides as monoamine oxidase inhibitors. Hansch and Free Wilson correlations. Eur J Med Chem, 13(2)177-182.

Structure (SMILES)	logP
CC(C)NNC(=O)COc1ccccc1Cl	1.82
CC(C)NNC(=O)C(C)Oc1ccc(Cl)cc1 (centres undefined)	2.14
Cc1ccccc1OCC(=O)NNC(C)C	1.83
COc1ccc(OCC(=O)NNC(C)C)cc1	1.21
CC(C)NNC(=O)C(C)Oc1ccccc1Cl (centres undefined)	2
Cc1ccc(OCC(=O)NNC(C)c2ccccc2)cc1 (centres undefined)	2.87
CCNNC(=O)COc1ccc(Cl)cc1	1.73
COc1ccc(OCC(=O)NNC(C)c2ccccc2)cc1 (centres undefined)	2.39
CC(C)NNC(=O)C(C)(C)Oc1ccc(Cl)cc1	2.56
CCNNC(=O)COc1ccccc1	1
O=C(COc1ccccc1)NNCc1ccccc1	2.16
O=C(COc1ccc(Cl)cc1)NNCc1ccccc1	2.92
Cc1cccc(OCC(=O)NNC(C)C)c1	1.77
Cc1cccc(OC(C)C(=O)NNC(C)C)c1 (centres undefined)	1.88
CC(C)NNC(=O)COc1cccc(Cl)c1	1.91
COc1cccc(OCC(=O)NNC(C)C)c1	1.33
COc1ccccc1OCC(=O)NNC(C)C	1.11
CC(C)NNC(=O)C(C)Oc1cccc(Cl)c1 (centres undefined)	2.18
CC(NNC(=O)COc1ccccc1)c1ccccc1 (centres undefined)	2.46
CC(C)NNC(=O)C(C)Oc1ccccc1 (centres undefined)	1.39
Cc1ccc(OCC(=O)NNC(C)C)cc1	1.81
CC(C)NNC(=O)C(C)(C)Oc1ccccc1	1.88
CC(C)NNC(=O)COc1ccccc1	1.24

Assay: method code SF, from Fulcrand, P.; Berge, G.; Noel, A. (1978). Hydrazides as monoamine oxidase inhibitors. Hansch and Free Wilson correlations. Eur J Med Chem, 13(2)177-182.

Structure (SMILES)	logP
CC(C)NNC(=O)COc1ccc(Cl)cc1	2.01
